Values of other authors in paper PMC3935482 (Clinical cancer research : an official journal of the …, 2013).
Like-named read-outs stand apart in the source and are kept apart here.

Key:
[1] = oral rapamycin and IV temsirolimus

Structure (SMILES)	Half-life (given by weekly IV infusion)	Cmax of rapamycin (5 mg oral rapamycin)	Cmax of rapamycin (9 mg oral rapamycin)	Cmax of rapamycin (60 mg oral rapamycin)	Half-life [1]	Patients with dermatologic toxicities such as rash (patients; patients receiving temsirolimus)	Grade 3 or 4 depression (patients; phase 2 study, 250 mg dose level)
CO[C@H]1C[C@@H]2CC[C@@H](C)[C@@](O)(O2)C(=O)C(=O)N2CCCC[C@H]2C(=O)O[C@H]([C@H](C)C[C@@H]2CC[C@@H](OP(C)(C)=O)[C@H](OC)C2)CC(=O)[C@H](C)/C=C(\C)[C@@H](O)[C@@H](OC)C(=O)[C@H](C)C[C@H](C)/C=C/C=C/C=C/1C [deferolimus]	45 to 52 h						
CO[C@H]1C[C@@H]2CC[C@@H](C)[C@@](O)(O2)C(=O)C(=O)N2CCCC[C@H]2C(=O)O[C@H]([C@H](C)C[C@@H]2CC[C@@H](O)[C@H](OC)C2)CC(=O)[C@H](C)/C=C(\C)[C@@H](O)[C@@H](OC)C(=O)[C@H](C)C[C@H](C)/C=C/C=C/C=C/1C [rapamycin]		15.5 ng/mL	37.9 ng/mL	57.72 ng/mL	61 to 69 h		
CO[C@H]1C[C@@H]2CC[C@@H](C)[C@@](O)(O2)C(=O)C(=O)N2CCCC[C@H]2C(=O)O[C@H]([C@H](C)C[C@@H]2CC[C@@H](OC(=O)C(C)(CO)CO)[C@H](OC)C2)CC(=O)[C@H](C)/C=C(\C)[C@@H](O)[C@@H](OC)C(=O)[C@H](C)C[C@H](C)/C=C/C=C/C=C/1C [temsirolimus]					61 to 69 h	up to 50%	10%
